In patent US5654296A, “Condensed heterocyclic compounds, their production and use” (priority 1994, dated 1997):
Structures can show the parent of a compound that is named as a salt.

How the values were obtained:
[1] = target: T1, GnRH receptors (rat pituitary anterior lobe membrane fraction) (Rattus norvegicus, UniProt P30969); experiment: 125I-leuprolerin GnRH receptor binding inhibition test, rat pituitary anterior lobe membrane fraction; settings: 4° C., 90 minutes, read-out: Binding inhibitory activity (IC50 μM) Rat
T1 construct: the anterior lobe of the pituitary gland was isolated and washed with ice-cooled homogenate buffer; from tissue; host or cells: anterior lobe of the pituitary gland, male Wistar rats (8 weeks old), membrane fraction
T1 sequence (P30969 1-327): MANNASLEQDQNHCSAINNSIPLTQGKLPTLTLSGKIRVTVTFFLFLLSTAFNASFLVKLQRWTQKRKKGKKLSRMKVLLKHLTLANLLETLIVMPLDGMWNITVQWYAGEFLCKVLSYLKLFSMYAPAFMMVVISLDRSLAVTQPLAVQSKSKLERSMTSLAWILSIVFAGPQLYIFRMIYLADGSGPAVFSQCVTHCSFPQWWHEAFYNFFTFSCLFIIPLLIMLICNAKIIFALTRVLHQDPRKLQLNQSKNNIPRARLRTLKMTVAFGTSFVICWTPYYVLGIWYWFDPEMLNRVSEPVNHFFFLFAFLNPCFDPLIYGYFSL
Protocol: Ten (10) μl of 3×10^4 M aqueous leuprolerin solution and 10 μl of 0.01 mg/ml lactoperoxidase were taken in a tube and 10 μl of Na^125 I solution (37 MBq) was added. After stirring, 10 μl of 0.001% H2 O2 was added and the reaction was conducted at room temperature for 20 minutes. Then, 700 μl of 0.05% TFA solution was added to the tube to terminate the reaction and the reaction mixture was purified by reverse-phase HPLC. The HPLC conditions are shown below. ^125 I-leuprolerin was eluted after a retention time of 26-27 minutes. (B) Preparation of a Rat Pituitary Anterior Lobe Membrane Fraction Containing GnRH Receptors […] The pituitary tissue was floated in 2 ml of the homogenate buffer and homogenized using a Polytron homogenizer. The homogenate was centrifuged at 700×G for 15 minutes. The supernatant was taken in an ultracentrifuge tube and centrifuged at 100,000×G for 1 hour to provide a membrane fraction pellet. […] The membrane fraction recovered as a pellet was resuspended in 10 ml of assay buffer, divided into portions, preserved at -80° C. and thawed when needed. […] For the rat and human membrane fractions prepared in (B) and (D), each membrane fraction was diluted with assay buffer to a concentration of 200 μg/ml and distributed in 188 μl portions into tubes. As to the bovine membrane fraction prepared in (C), the membrane fraction was diluted with assay buffer to 750 μg/ml and distributed in 188 μl portions into tubes. […] Where the rat or bovine pituitary anterior lobe membrane fraction was used, the reaction was conducted at 4° C. for 90 minutes. Where the membrane fraction of the CHO with human GnRH receptors expressed was used, the reaction was carried out at 25° C. for 60 minutes. […] After filtration, the radioactivity of ^125 I-leuprolerin remaining on the filter was measured with a γ-counter. The expression (TB-SB)/(TB-NSB)×100 (where SB=radioactivity with the compound added, TB=maximum bound radioactivity, NSB=nonspecifically bound radioactivity) was calculated to find the binding inhibition rate of each test compound.

[2] = tested on: serotonine (5-HT) uptake; experiment: Activity to inhibit serotonine (5-HT) uptake; assay type: biochemical; settings: rat whole brain; 3H-5-HT 10 nM; 37° C.; pH 7.4; read-out: 5-HT uptake inhibitory activity (IC50 μM)
Protocol: (a) Activity to inhibit serotonine (5-HT) uptake
(§1) The experiment was performed in accordance with the method of Hyttel et al. [Psychopharmacology 60, 13, 1978]. The whole brain of a rat was homogenized in 40 volumes of ice-cooled 0.32M sucrose solution containing 10 μM pargyline and, then, centrifuged (600×G) for 10 minutes. The supernatant was centrifuged (2500×G) for 55 minutes to provide a pellet. This pellet was suspended in Krebs-Ringer-phosphate buffer (pH 7.4; 122 mM NaCl, 4.82 mM KCl, 0.972 mM CaCl2, 1.21 mM MgSO4, 12.7 mM Na2 HPO4, 2.97 mM NaH2 PO4, 0.162 mM EDTA sodium, 10 mM glucose, 1.14 mM ascorbic acid) saturated with a mixed gas (95% O and 5% CO2). To 900 μl of this suspention was added a solution of the test drug (10 μl) in DMSO and the mixture was incubated at 37° C. for 5 minutes. Then, 100 μl of ^3 H-5-HT (final concentration 10 nM) was added and the mixture was further incubated at 37° C. for 5 minutes. This reaction mixture was filtered under suction using a GF/B filter and the filter was washed with 4 ml of the above-mentioned buffer. The radioactivity on the filter was measured by the liquid scintillation method.
The amount of the drug which caused a 50% decrease in 5-HT uptake is shown as 50% inhibitory activity (IC50) in Table 42.

[3] = tested on: 45Ca2+ uptake (veratrine-stimulated, rat cerebral cortex crude synaptosome fraction); experiment: 45Ca2+ uptake inhibition experiment; assay type: biochemical; settings: 30 μM veratrine, 37° C., 10 minutes, read-out: 45Ca2+ uptake inhibitory activity (IC50 μM)
Protocol: The rat cerebral cortex was homogenized in 10 volumes of ice-cooled 0.32M sucrose solution to prepare a crude synaptosome fraction (100×G, 10 min., 12000×G, 20 min.). […] To 900 μl of the homogenate was added a DMSO solution of the test drug (10 μl). The mixture was incubated at 37° C. for 10 minutes, followed by addition of 100 μl of a veratrine solution (containing 0.18 uci ^45 Ca^2+) at a final veratrine concentration of 30 μM. The mixture was incubated at 37° C. for 10 minutes, quenched with 4 ml of ice-cooled EGTA solution (120 mM sodium chloride, 5 mM potassium chloride, 5 mM EGTA, pH=7.5) and suction-filtered using a GF/B filter. The filter was washed twice with 4 ml each of a washing solution (132 mM sodium chloride, 5 mM potassium chloride, 1.3 mM magnesium chloride, 1.2 mM calcium, chloride, 20 mM Tris base, pH 7.5) and the radioactivity of […] was measured by the liquid scintillation method.
The ^45 Ca^2+ uptake inhibition rate was calculated by means of the following equation. [formula] A: The ^45 Ca^2+ uptake after 10 minutes' stimulation with 30 μM veratrine in the presence of the test drug
B: The ^45 Ca^2+ uptake in the absence of veratrine and in the presence of the test drug
C: The ^45 Ca^2+ uptake after 10 minutes' stimulation with 30 μM veratrine in the absence of the test drug
D: The ^45 Ca^2+ uptake in the absence of the test drug and in the absence of veratrine

[4] = tested on: norepinephrine (NE) uptake; experiment: Activity to inhibit norepinephrine (NE) uptake; assay type: biochemical; settings: rat cerebral cortex; 3H-NE; read-out: NE uptake inhibitory activity (IC50 μM)
Protocol: as §1
(b) Activity to inhibit norepinephrine (NE) uptake
Using the rat cerebral cortex and, as the substrate, ^3 H-NE, an experiment was performed by otherwise the same procedure as described for 5-HT.

Row | SMILES | IC50 [1] [µM] | IC50 [2] [µM] | IC50 [3] [µM] | IC50 [4] [µM]
1 | COc1cc2c(cc1OC)CC1(CCCCN1CCCCC1(c3ccccc3)COCc3ccccc31)CC2 (centres unmarked) [Example I-52, 3,4-Dihydro-6,7-dimethoxy-1'-[4-(4-phenylisochroman-4-yl)butyl]spiro[naphthalene-2(1H),2'-piperidine] hydrochloride] | 0.03 | – | – | –
2 | c1ccc(CCNCCCC2(c3ccccc3)COCc3ccccc32)cc1 (stereo not drawn) [Example I-24, 4-[3-(β-Phenethylamino)propyl]-4-phenylisochroman hydrochloride] | 0.9 | 0.26 | 1.77 | 0.22
3 | c1ccc(C2(CCCN3CCCCC34CCc3ccccc3C4)COCc3ccccc32)cc1 (centres unmarked) [Example I-35, 3,4-Dihydro-1'-[3-(4-phenylisochroman-4-yl)propyl]spiro[naphthalene-2(1H),2'-piperidine] hydrochloride] | 0.7 | 0.13 | 0.14 | 0.3
4 | COC(=O)c1cccc(CNCCCC2(c3ccccc3)COCc3ccccc32)c1 (stereo not drawn) [Example I-45, Methyl α-[3-(4-Phenylisochroman-4-yl)propylamino]-m-toluate hydrochloride] | 0.5 | – | – | –
5 | COc1ccc2c(c1)CCC1(CCCCN1CCCC1(c3ccccc3)COCc3ccccc31)C2 (centres unmarked) [Example I-36, 3,4-Dihydro-6-methoxy-1'-[3-(4-phenylisochroman-4-yl)propyl]spiro[naphthalene-2(1H),2'-piperidine] hydrochloride] | 0.6 | 0.0051 | 0.76 | 0.41
